How the values were obtained:
[1] = molecular target: T1, Human recombinant HDAC2 enzyme (Homo sapiens, UniProt Q92769); assay: HDAC2 fluorescence enzyme inhibition assay (Boc-Lys(acetyl)-AMC); assay type: biochemical
T1 construct: purchased Abcam
Method: Firstly, a 96-well plate was loaded with a blend comprising 10 μL of HDAC2 enzyme solution and 50 μL of the test compounds at assorted concentrations, followed by incubation at a temperature of 37°C for a duration of 5 min. Subsequently, 10 μL of the fluorescent substrate Boc-Lys (acetyl)-AMC was added and continued for 30 min. Finally, 100 μL of developer containing trypsin and TSA was injected into each well and incubated for 20 min.

HepG2 xenograft = assay: HepG2 bearing xenograft model; assay type: in vivo, BALB/c nude mice; details: versus vehicle
From the text: A previously reported human tumor xenograft model was established to evaluate the anti-tumor effects of PKHD-5 in vivo ([Zhou et al., 2022]). All procedures involving animals were granted approval by the Ethics Committee at China Pharmaceutical University. A total of 20 male BALB/c nude mice (6 weeks old) were purchased from Changzhou Cave Experimental Animal Co., Ltd. (Changzhou, China). Mice were maintained under specific pathogen-free (SPF) conditions, with environmental parameters meticulously controlled at a temperature of 25°C ± 2°C, relative humidity maintained at 50% ± 5%, and an established diurnal cycle of 12 h for both light and darkness. During the experiment, all mice were free to access water and food. After 10 days of adaptive feeding, HepG2 cells (1×10^7 cells) were subcutaneously injected into mice. Once the tumors reached a size of 90–120 mm^3, the nude mice were randomly assigned to either the vehicle control group or the group treated with PKHD-5 (n = 5). Furthermore, the treatment was divided into three dose-based groups of 1, 5, and 10 mg/kg. The tumor volume was measured by a digital caliper for a total of 18 days and calculated by the following formula: (c×c×d)/2, where c represents the minimum diameter of the tumor and d indicates the maximum diameter. In addition, the body weight of the mice was measured and recorded every 3 days.

HepG2 cells = assay: RT-PCR analysis; assay type: cell-based, human
Method: Total RNA was extracted from cells using Trizol reagent (Invitrogen, Carlsbad, CA) and reverse transcribed into cDNA with the PrimeScript RT reagent kit (Takara Bio, Otsu, Japan). RT-PCR was performed on the Mx3000P system (Agilent Technologies, Santa Clara, CA) with TB Green Premix Ex Taq II (Takara Bio). Relative gene expression was determined by the 2^−ΔΔCt method.

In vivo pharmacokinetics = details: BALB/c, mouse, plasma, mice, 5 mg/kg
Method: In the pharmacokinetic (PK) assessment of PKHD-5, BALB/c mice were utilized as the experimental model. PKHD-5 was administered either intraperitoneally or orally at a dosage of 5 mg/kg. Serial blood samples (0.25 mL) were collected at 0.25, 0.5, 1, 2, 4, 8, 16, and 24 h post-treatment. Each plasma sample (50 μL) underwent protein precipitation with a 1:1 mixture of methanol and acetonitrile (200 μL) and an internal standard. After vortexing for 5 min, the samples were centrifuged at 12,000 rpm for 5 min, yielding a supernatant (60 μL) for LC-MS/MS analysis. The data obtained were analyzed using Phoenix software to determine the PK profile of PKHD-5 in the mouse model.

HepG2/MDR = assay: MTT assay; assay type: cell-based; details: Homo sapiens, multidrug-resistant HepG2/MDR, 48 h, read-out: IC50 (μM) ± SD HepG2/MDR
Method: (§1) Cells at a density of 4×10^3 cells/well were inoculated into 96-well plates for overnight culture at 37°C. […] Then, 100 μL of a 0.5 mg/mL MTT solution was pipetted into each well, and the incubation was prolonged for 4 h, resulting in the formation of a purple precipitate. Afterward, 200 μL of DMSO was added to each well, and the plate was vortexed for 10 min. The absorbance at 570 nm was determined with a Synergy 4 microplate reader (BioTek, United States). Each experiment was performed three times under the same conditions.

HepG2 = assay: MTT assay; assay type: cell-based; details: Homo sapiens, HepG2, 48 h, read-out: IC50 (μM) ± SD HepG2
Method: as §1

63 distinct kinases = assay: SelectScreen kinase selectivity assay, whole panel; assay type: biochemical; details: read-out: IC50 values for each of the 63 kinases
Method: The kinase selectivity analysis of PKHD-5 was performed using the SelectScreen kinase analysis service provided by Thermo Fisher Scientific. The experiment initially involved the preparation of a series of inhibitor solutions at varying concentrations, which were then reacted with various kinase targets under standardized conditions to calculate the percentage inhibition for each test solution. Ultimately, the IC50 values were calculated based on the concentration-inhibition curves by fitting a four-parameter logistic curve, thereby assessing the potency and selectivity of the inhibitors. The analysis results are detailed in Supplementary Table S1.

T1 sequence (Q92769 whole entry): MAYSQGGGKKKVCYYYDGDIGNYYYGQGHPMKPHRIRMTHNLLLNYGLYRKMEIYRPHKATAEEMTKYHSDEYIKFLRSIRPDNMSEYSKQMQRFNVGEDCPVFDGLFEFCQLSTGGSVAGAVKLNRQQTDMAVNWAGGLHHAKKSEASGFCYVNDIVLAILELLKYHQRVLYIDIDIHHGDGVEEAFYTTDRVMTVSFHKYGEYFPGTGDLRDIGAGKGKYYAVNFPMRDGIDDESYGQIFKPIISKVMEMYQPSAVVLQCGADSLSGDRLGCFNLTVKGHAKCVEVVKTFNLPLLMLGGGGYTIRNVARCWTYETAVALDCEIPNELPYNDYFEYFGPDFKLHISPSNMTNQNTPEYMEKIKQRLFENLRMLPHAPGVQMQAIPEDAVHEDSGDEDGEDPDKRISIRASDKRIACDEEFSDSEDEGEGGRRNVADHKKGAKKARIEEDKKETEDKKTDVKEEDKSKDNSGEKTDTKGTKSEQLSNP

For Cc1ccc(O)c(C)c1-n1c(N)c(C(N)=O)c2cc(CCCCCC(=O)NO)c(C)nc21 [PKHD-5], the IC50 ([1]; fluorescence signal-based method) was 0.00228 ± 0.00013 µM, the “fold inhibition of HDAC2 compared with SAHA” value ([1]; ratio of IC50 values versus SAHA) was 4.42 fold and the “body weight changes in mice” value (HepG2 xenograft; HepG2 xenograft mice) was “did not exhibit any significant disparities”. For the same molecule, the “rate at which tumors grew (tumor volume)” value (HepG2 xenograft; HepG2 xenograft, intraperitoneal 1, 5, 10 mg/kg, 18 days) was “considerably lower”, the “expression of histone H3 acetylation” value (HepG2 cells) was “upregulated” and the “expression of p21” value (HepG2 cells) was “upregulated”. The AUC (In vivo pharmacokinetics; IP) was 15 µM·h, the Cmax (In vivo pharmacokinetics; IP) was 3.26 µM and the bioavailability (In vivo pharmacokinetics; IP) was 82%. For the same molecule, the half-life (In vivo pharmacokinetics; IP) was 4.75 h, the AUC (In vivo pharmacokinetics; PO) was 12.2 µM·h and the Cmax (In vivo pharmacokinetics; PO) was 2.92 µM. For the same molecule, the bioavailability (In vivo pharmacokinetics; PO) was 66%, the half-life (In vivo pharmacokinetics; PO) was 3.93 h and the IC50 (HepG2/MDR) was 0.92 ± 0.05 µM. For the same molecule, the IC50 (HepG2) was 0.19 ± 0.03 µM and the IC50 (63 distinct kinases) was greater than 50 µM.

From PMC11604427 (Frontiers in Pharmacology, 2024)
